One assay has as its system CFTR channel activity. Kind of assay: Transepithelial short-circuit current and conductance in HAE. It is filed as cell-based, human. The note with it: PAF treated and CFTR DsiRNA transduced cells.
The test system of a further assay is Human HPRT mRNA. Kind of assay: HPRT mRNA silencing by DsiRNA-Transductin in well-differentiated HAE (RT-qPCR). It is filed as cell-based. The protocol: FIG. 1. […] (a) Well-differentiated HAE cultures grown at the ALI were incubated in adding HPRT-targeting or control NC1 DsiRNA (250 nM) formulated with Transductin containing 0.1 or 0.01 mg LOS (HPRT-targeting DsiRNAs) or 0.1 mg LOS (NC1 DsiRNA). After 4 hours, the apical surface was rinsed and 24 hours later, target RNA levels quantified by RT-qPCR. All mRNA levels were normalized to NC1-treated samples. Mean levels were calculated from three biological replicates, each done in triplicate. ***p<0.001, **p<0.01 (Student's t-test). […] Samples were normalized to NC1-treated cells. ***p<0.001, **p<0.01 (Student's t-test). […] PAFRa was present throughout transfection in cells pre-treated with the reagent. Cells were harvested and RNA quantified 24 hrs later. Samples were normalized to NC1-treated cells. **p<0.01 (Student's t-test).
FIG. 3. Spiperone improves RNAi responses in DsiRNA transduced cells. HAE were pre-treated with various small molecules at the concentration indicated. The drugs were added to the apical surface and the basolateral media for 6 hours. Both surfaces were then washed and HPRT or NC1 DsiRNA formulated with Transductin added to the apical surface. The cells were washed after 4 hours, and RT-qPCR done on cell lysates harvested 24 hours later.
Human airway epithelial cells were obtained from trachea and bronchi of lungs removed for organ donation from non-CF individuals. Cells were isolated by enzyme digestion as previously described. Following enzymatic dispersion, cells were seeded at a density of 5×10^5 cells/cm^2 onto collagen-coated, 0.6 cm^2 semi permeable membrane filters (Millipore polycarbonate filters; Millipore Corp., Bedford, Mass.). The cells were maintained at 37° C. in a humidified atmosphere of 5% CO2 air. Twenty-four hours after plating, the apical media was removed and the cells were maintained at an air-liquid interface (ALI) to allow differentiation of the epithelium. The culture medium consisted of 1:1 ratio mix of Dulbecco's modified Eagle's medium (DMEM)/Ham's F12, 5% Ultroser G (Biosepra S A, Cedex, France), 100 U/ml penicillin, 100 μg/ml streptomycin, 1% nonessential amino acids and 0.12 U/ml insulin. Studies were performed on well-differentiated epithelia approximately 4 to 6 weeks after initiation of the ALI cultures conditions. HEp-2 cells were maintained in MEM substituted with 10% fetal bovine serum and 100 U/ml penicillin.
PAF was purchased from Sigma-Aldrich. The reagent was reconstituted in ethanol and used in the experiment at a concentration of 200 nM or as described in the figures. PAF was added to the transfection mixture at the apical surface as well as to the basolateral media. PAFRa (WEB 2086) was purchased from Sigma-Aldrich. […] The reagent was incubated with the cells throughout the transfection period.
All the small molecules tested were purchased from Sigma-Aldrich. The chemicals were reconstituted in appropriate solutions as recommended by the manufacturer. The epithelia were pre-treated with drugs for 6 hours at concentrations used in the CMAP study or noted in the published literature. Following drug treatment, the epithelia were transduced with DsiRNA as described above.
For well-differentiated airway epithelia, transfection was performed mostly according to the manufacturer's protocol. In all cases, the apical surface of epithelia was rinsed twice with PBS before adding the transfection mixture to the apical surface. DsiRNAs were used at a concentration of 250 nM. The mixture was left on the cells for 4 hours after which the medium was removed, the apical surface rinsed with PBS and the cells incubated further for 24 hours. For all experiments, a minimum of 3 biological replicates, in triplicate, were done.
Total RNA was isolated using SV96 RNA isolation kit (Promega, Madison, Wis.), according to manufacturer's protocol. […]
Background: In qPCR the cycle at which signal appears reflects the starting amount.

The next assay concerns RSV strain A2. Kind of assay: RSV titer in apical washings of infected HAE (plaque assay on HEp-2 cells). The assay is classed as cell-based, Respiratory Syncytial Virus. The source says:
FIG. 6. […] HAE was either treated or untreated with PAF in concurrence with RSV N DsiRNA. Six hours later the cells were infected with RSV at an MOI of 1. Forty eight hours later, the cell washings from the apical surface was collected and assayed for viral titer (a). The cells were lysed and the proteins visualized after immunoprecipitation with anti-RSV antibodies (b) and the bands quantified by densitometry (c). Data are mean±SD from the results three different experiments, each using a different donor. ***p<0.001 (Student's t-test).
For infections, RSV aliquots were resuspended in cold DMEM or DMEM/F12. RSV strain A2 (wt RSV) was kindly provided by Barney Graham (NIH, Bethesda, Md.), and working stocks of RSV were prepared in HEp-2 cells (ATCC).
RSV infection of HAE for both for immunoblot and viral titer was done at an MOI of 1. The virus was thawed at 37° C. and diluted in MEM (0% FCS) to a volume of 70 μl (1MOI)/well. The cells in Millicell filters were rinsed with the same media once and the virus applied to the apical surface. The plate was incubated at 37° C. for a period of 2 hours. […]
HEp-2 cells were seeded onto 12-well plate at a sufficient density so that it reached 90-95% confluence the next day. […] The cells were incubated for an additional 24 hours at 37° C. after which the plaques were counted under a light box. […]

As for platelet activating factor [PAF], the “cAMP-activated changes in transepithelial current and conductance” value in the assay on CFTR channel activity is on record as “significantly reduced”. For the same substance, the “duration of knock down: HPRT mRNA levels” value with Human HPRT mRNA (1 and 3 days post PAF-assisted transfection) is reported as “significantly reduced”. Further, the “duration of knock down: HPRT transcript levels” value in the assay with Human HPRT mRNA (6 and 10 days post PAF-assisted transfection) is listed as “returning to basal levels”. The “dose-response of PAF on DsiRNA silencing” value in the assay on Human HPRT mRNA (PAF at different doses, 4 hours with HPRT DsiRNA-Transductin (FIG. 7)) is “A dose-response relationship for PAF on DsiRNA silencing was observed”. Besides, the “reduction of viral titers from apical rinses” value in the assay with RSV strain A2 (PAF with RSV N DsiRNA-Transductin, RSV MOI 1 six hours later, 48 hours after infection) is “more than 100 fold”. In addition, the “effect on viral titers” value in the assay with RSV strain A2 (PAFR activation alone (no RSV N DsiRNA effect)) is on record as “did not reduce viral titers”.

The values are drawn from patent US9987299B2, “Methods of improving RNAi in well-differentiated airway epithelia” (University of Iowa Research Foundation, priority 2014, dated 2018).
